In US20070258986A1, “Targeted Delivery System for Bioactive Agents” (Govt of the US as represented by the secretary,, priority 2003, published 2007):

Legend:
Y289L GalT [1] = biological target: T1, Y289L GalT (Bos taurus, UniProt P08037, Y289L); assay: Labeling of O-GlcNAc glycosylated CREB protein with analogue 1 and Y289L GalT, aminooxy biotin, streptavidin-HRP blot; format: biochemical, bovine; conditions: recombinant CREB from Sf9 cells, analogue 1 1 mM, 12 h at 4° C., then aminooxy biotin
T1 construct: the catalytic domain of GalT has a tyrosine exchanged with another amino acid; made in house
T1 sequence (P08037 130-402 Y289L limits assumed): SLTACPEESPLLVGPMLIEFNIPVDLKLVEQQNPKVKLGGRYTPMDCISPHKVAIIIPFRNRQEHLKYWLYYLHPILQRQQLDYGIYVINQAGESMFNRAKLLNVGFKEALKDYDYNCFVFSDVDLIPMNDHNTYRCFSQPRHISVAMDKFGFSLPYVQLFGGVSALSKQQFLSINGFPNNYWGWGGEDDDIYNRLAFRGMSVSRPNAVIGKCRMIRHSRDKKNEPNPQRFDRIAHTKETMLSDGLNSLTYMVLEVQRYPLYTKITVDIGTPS
Description: Labeling of CREB protein: Recombinant O-GlcNAc glycosylated CREB was generated by coexpression of CREB with O-GlcNAc glycosyltransferase in Sf9 cells as described previously (Lamarre-Vincent et al., 2003). 500 ng of CREB in 20 mM HEPES pH 7.9, 100 mM KCl, 0.2 mM EDTA, 15% glycerol was added to 50 mM MOPS pH 6.45 containing 5 mM MnCl2 and 0.25 mU/μL alkaline phosphatase (Unverzagt et al., 1990). Analogue 1 and Y289L GalT were then added to final concentrations of 1 mM and 40 ng/μL, respectively. Control reactions without enzyme or analogue 1 were treated identically. Following incubation at 12 h at 4° C., the reactions were diluted 5-fold into PBS containing protease inhibitors (5 μg/mL pepstatin, 5 μg/mL chymostatin, 20/μg/mL leupeptin, 20 μg/mL aprotinin, 20 μg/mL antipain, 0.2 mM PMSF). Aminooxy biotin was added to a final concentration of 2 mM, and the biotinylation reactions were incubated with gentle shaking for 12 h at 37° C. Reactions were aliquoted for analysis and stopped by boiling in SDS-PAGE loading dye. Proteins were resolved by 10% SDS-PAGE, electrophoretically transferred to nitrocellulose, and probed with streptavidin-HRP. […]

Y289L GalT [2] = biological target: T1, Y289L GalT; assay: Labeling of the O-GlcNAc peptide with ketone analogue 1 by mutant Y289L GalT (LC-MS); format: biochemical, bovine; conditions: peptide TAPTS(O-GlcNAc)TIAPG 10 μM, analogue 1 1 mM, 6 h at 4° C.
Description: Labeling of the O-GlcNAc Peptide: The peptide TAPTS(O-GlcNAc)TIAPG (10 μM was dissolved in 25 mM MOPS buffer, pH 6.7 containing 5 mM MnCl2 and 8 μM reference peptide (ThermoFinnigan, San Jose, Calif.). Ketone analogue 1 and mutant Y289L GalT were added to final concentrations of 1 mM and 100 ng/μL, respectively. Prior to enzyme addition, an aliquot of the reaction was removed as an initial time point for LC-MS analysis. Reactions were incubated at 4° C. for 6 h, after which an aliquot of the reaction mixture was removed for product analysis by LC-MS. The remainder of the reaction was diluted 5-fold into PBS (final concentration: 10.1 mM Na2HPO4, 1.76 mM KH2 HPO4, 137 mM NaCl, 2.7 mM KCl, pH 6.7), and N-(aminooxyacetyl)-N′-(D-biotinoyl) hydrazine (Molecular Probes, Eugene, Oreg.) was added to a final concentration of 12 mM. After 8 h at 25° C., the extent of biotin-oxime product was measured by LC-MS. […] Labeling reactions with wild-type GalT were performed identically, with the exception that reactions were incubated at 37° C. for 12 h. […]
For the aminooxy biotin reaction, formation of the oxime product was monitored using an extracted ion chromatogram within the mass range 1319.0-1321.0 m/z and 1633.0-1635.5 m/z, which was generated post-acquisition via the Xcalibur™ software. […]

- labeling of glycosylated CREB (chemiluminescence) (Y289L GalT [1]; diammonium salt): Strong, selective labeling
- labeling of glycosylated CREB (chemiluminescence) (Y289L GalT [1]; listed as 1, diammonium salt): Strong labeling
- conversion of the peptide to the ketone-labeled product (Y289L GalT [2]): complete conversion
SMILES: CC(=O)C[C@H]1[C@@H](OP(=O)(O)OP(=O)(O)OC[C@H]2O[C@@H](n3ccc(=O)[nH]c3=O)[C@H](O)[C@@H]2O)O[C@H](CO)[C@H](O)[C@@H]1O.N.N [analogue 1, Uridine 5′-diphospho-2-acetonyl-2deoxy-α-D-galactopyranose diammonium salt]
